Test results from patent publication US8455537B2, “Estrogen receptor modulators and uses thereof” (University of Medicine and Dentistry of New Jersey, priority 2006, dated 2013).

Assays:
[1] = biological target: T1, estrogen receptor alpha (ERα) (Homo sapiens, UniProt P03372); assay: Gel filtration displacement assay, competitive binding with 3H-estradiol; conditions: test compound 10 μM; 25 nM 3H-estradiol; 10 ng purified full-length ERα; no cold ligand = 100%; lower = stronger binding
T1 construct: 10 ng of purified full-length ERα (Active Motif, Carlsbad, Calif.); purchased Active Motif, Carlsbad, Calif
T1 sequence (P03372 1-595): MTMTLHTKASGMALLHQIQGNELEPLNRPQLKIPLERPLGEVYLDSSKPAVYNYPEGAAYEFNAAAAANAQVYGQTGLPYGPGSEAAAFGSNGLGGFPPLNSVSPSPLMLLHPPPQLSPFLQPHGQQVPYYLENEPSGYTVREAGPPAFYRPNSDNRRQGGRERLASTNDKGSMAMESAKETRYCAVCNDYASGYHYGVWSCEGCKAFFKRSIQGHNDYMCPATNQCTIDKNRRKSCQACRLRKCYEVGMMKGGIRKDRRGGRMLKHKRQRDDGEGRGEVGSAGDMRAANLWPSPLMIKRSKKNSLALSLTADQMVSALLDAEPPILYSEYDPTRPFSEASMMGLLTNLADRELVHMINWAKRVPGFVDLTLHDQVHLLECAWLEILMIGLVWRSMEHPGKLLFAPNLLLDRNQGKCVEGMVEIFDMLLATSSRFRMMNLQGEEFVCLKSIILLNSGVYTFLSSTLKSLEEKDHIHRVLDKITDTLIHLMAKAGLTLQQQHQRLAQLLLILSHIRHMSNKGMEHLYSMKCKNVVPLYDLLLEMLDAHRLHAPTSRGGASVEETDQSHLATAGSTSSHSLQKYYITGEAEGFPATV
Protocol: A gel filtration displacement assay for estrogen receptor alpha (ERα) was employed to assess competitive binding by ER antagonists among the test compounds in 10 μM. ER binding assays were conducted in duplicate in 50 mM Tris-HCl, pH7.5, 1 mM EDTA, 20% Glycerol and 1 mM DTT buffer. Radioligands that were used include [6, 7-^3H] estradiol (specific activity 44 Ci/mmol, Amersham Biosciences).
Following 1-hour incubation, assays were terminated by filtration through Whatman GF/B filters. […] Counts were normalized to the negative controls (no cold ligand) as the percentage of bound radiolabeled-estradiol remaining after separating bound radioligand from free radioligand. The negative controls were taken as 100% bound radioligand remaining. […] Results are reported as the average values of three independent experiments in duplicate. Error bars represent standard deviation of the three determinations (FIG. 2).

ERα = biological target: T2, ERα (Homo sapiens, UniProt P03372); assay: NR peptide ERα ELISA kit, percentage of ER activation; type: biochemical; conditions: 25 μM sample; normalized to vehicle control (DMSO) = 100%; over 100% agonist, below 100% antagonist; MCF-7 nuclear extract as ER source
T2 construct: presence of both ER and PR in the MCF-7 nuclear extract; (kit); host or cells: MCF-7 nuclear extract
T2 sequence (P03372 1-595): T1 sequence (P03372 1-595)
Description: Relative units of light intensity for each test compound were normalized to the vehicle control (DMSO) and then expressed in percentage of ER activation. […] The data reported here represent results of three independent determinations in duplicate. Error bars represent the standard deviation of the three determinations.

Row | percentage of bound radiolabeled-estradiol remaining [1] | percentage of ER activation (ERα) | Structure (SMILES)
1 | 65.9% | 53.1% | CCC(=O)C1=C(O)CCC(c2cccc(Oc3ccccc3)c2)C1=O (stereo not shown) [Compound A]
2 | > 100% | 51.7% | CC#C[C@]1(O)CC[C@H]2[C@@H]3CCC4=CC(=O)CCC4=C3[C@@H](c3ccc(N(C)C)cc3)C[C@@]21C [mifepristone, reference compound]
3 | 89.8% | 69% | O=C1c2ccccc2C(=O)N1CN(C(=O)c1ccccc1)c1ccc(O)cc1 [Compound B]

Row | Structure (SMILES) | percentage of bound radiolabeled-estradiol remaining [1] | percentage of ER activation (ERα)
4 | C[C@]12CC[C@@H]3c4ccc(O)c(O)c4CC[C@H]3[C@@H]1CC[C@@H]2O [4-hydroxy estradiol] | – | 196.3%
